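Each compound was tested at five concentrations against cells in 96-well plates for 48 hours. The concentration for 50% growth inhibition is given as GI50.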 The source made the active and inactive calls. Cut-off read from the data, not from the text of the source: active = GI50 up to about 1.1 µM and inactive = higher.

Holding throughout (experiment): inhibition of tumour cell growth, NCI panel, 48 h
The test system of assay [1] is OVCAR-8.
The test system of assay [2] is A498.
Assay [3] concerns EKVX.
Assay [4] relates to NCI-H522.
The subject of assay [5] is 786-0.
The subject of assay [6] is OVCAR-4.
The subject of assay [7] is M14.
The test system of assay [8] is UO-31.
In assay [9] the test system is ACHN.
Assay [10] has as its system CAKI-1.
Assay [11] relates to MOLT-4.
In assay [12] the test system is T47D.
The subject of assay [13] is MCF7.
Assay [14] has as its system HCT-116.
The subject of assay [15] is SF-539.
Assay [16] deals with SK-MEL-28.
The test system of assay [17] is MDA-MB-435.
The test system of assay [18] is SK-MEL-2.
Assay [19] has as its system LOX IMVI.
Assay [20] deals with SR.

Take `O=[N+]([O-])c1ccc(NC(=S)N/N=C(\c2ccccc2)c2ccccn2)cc1`: the GI50 is 0.037 µM (active) in assay [1]; 1.75 µM (inactive) in [2]; 0.231 µM (active) in assay [3]; 0.12 µM (active) in assay [4]; 1.25 µM (inactive) in [5]; 1.73 µM (inactive) in [6]. Also, the GI50 in assay [7] was 1.02 µM (active); in assay [8] it was 1.46 µM (inactive); in assay [9] it was 1.16 µM (inactive); in assay [10] it was 1.6 µM (inactive); in assay [11], < 0.0314 µM (active); in [12], 1.45 µM (inactive). For the same compound, the GI50 was 1.43 µM (inactive) in [13]; 1.49 µM (inactive) in assay [14]; 1.74 µM (inactive) in assay [15]; 1.22 µM (inactive) in [16]; 1.74 µM (inactive) in [17]; 1.76 µM (inactive) in assay [18].
As for `c1ccc(CSCCC(SCc2ccccc2)SCc2ccccc2)cc1`, the GI50 in [1], in [2], in assay [3], in [4], in assay [5] and in [6] was > 10 µM (inactive) throughout. In addition, the GI50 in assay [7], in assay [8], in [9], in assay [10], in [19] and in [11] was > 10 µM (inactive) in each case. The GI50 in [12], in assay [13], in assay [14], in assay [15], in [20] and in assay [16] was > 10 µM (inactive) in each case. Besides, the GI50 in assay [18] is > 10 µM (inactive).
`O=C1CC(Br)c2c(Br)sc(Br)c21` (stereo not given): the GI50 was 16.1 µM (inactive) in assay [1]; 91.4 µM (inactive) in assay [2]; 19.3 µM (inactive) in assay [3]; 12.1 µM (inactive) in [4]; 16.3 µM (inactive) in assay [5]; 17.3 µM (inactive) in [6]. Also, the GI50 in assay [7] is 15.8 µM (inactive); in assay [8], 16.4 µM (inactive); in assay [9], 17.7 µM (inactive); in assay [10] it was 22 µM (inactive); in assay [19], 14.3 µM (inactive); in assay [11], 0.906 µM (active). In addition, the GI50 is 17.6 µM (inactive) in assay [12]; 16.5 µM (inactive) in [13]; 13.6 µM (inactive) in [14]; 24.5 µM (inactive) in assay [15]; 32 µM (inactive) in assay [16]; 20 µM (inactive) in [17]. Also, the GI50 in [18] was 18.5 µM (inactive).
`Cc1ccc(S(=O)(=O)N2CCc3cc(O)c([N+](=O)[O-])cc32)cc1`: the GI50 in assay [1], in [2], in [4], in [5], in assay [6] and in assay [7] was > 100 µM (inactive) throughout. The GI50 in [8], in [9], in assay [10], in assay [19], in assay [11] and in assay [12] was > 100 µM (inactive) throughout. The GI50 in [13], in [14], in [15], in assay [16], in [17] and in assay [18] was > 100 µM (inactive) each time.
Consider `CC1=NN=C(N)N/C1=C/C(Sc1ccc(Cl)cc1)c1cccs1` (stereo not given), for which the GI50 in assay [1] was 16 µM (inactive); in assay [2] it was 16.4 µM (inactive); in assay [3], 14.4 µM (inactive); in [4], 4.65 µM (inactive); in [5] it was 18.5 µM (inactive); in assay [6] it was 16.5 µM (inactive). The GI50 in [7] was 13.4 µM (inactive); in assay [8], 4.45 µM (inactive); in [9] it was 12.9 µM (inactive); in assay [10], 15.7 µM (inactive); in assay [19], 16.7 µM (inactive); in [11], 13.6 µM (inactive). Besides, the GI50 was 22 µM (inactive) in [12]; 6.53 µM (inactive) in assay [13]; 13.6 µM (inactive) in assay [14]; 17.5 µM (inactive) in [16]; 13.3 µM (inactive) in assay [17]; 13.4 µM (inactive) in [18].
Turning to `C=C(COCO)C(C)=O`, the GI50 was 8.51 µM (inactive) in assay [1]; 27.9 µM (inactive) in [2]; 20.4 µM (inactive) in assay [3]; 2.14 µM (inactive) in assay [4]; 12 µM (inactive) in assay [5]; 17.9 µM (inactive) in [6]. The GI50 in assay [7] is 13 µM (inactive); in assay [8] it was 12.2 µM (inactive); in assay [9] it was 15.7 µM (inactive); in assay [10], 2.5 µM (inactive); in assay [19] it was 15.9 µM (inactive); in assay [11] it was 2.66 µM (inactive). Further, the GI50 in [12] is 15.7 µM (inactive); in assay [13] it was 16.3 µM (inactive); in assay [14], 13.5 µM (inactive); in assay [15], 6.24 µM (inactive); in assay [16], 16.8 µM (inactive); in assay [17] it was 14.2 µM (inactive). Besides, in assay [18], the GI50 was 22.8 µM (inactive).
With `O=C1Sc2ccccc2NC1=C(C(=O)c1ccccc1)C(=O)c1ccccc1`, the GI50 was 22.9 µM (inactive) in [1]; 34.8 µM (inactive) in [2]; 33.1 µM (inactive) in assay [3]; 18.4 µM (inactive) in [4]; 26.2 µM (inactive) in [5]; 69.8 µM (inactive) in assay [6]. The GI50 in assay [7] is 15.2 µM (inactive); in [8], 29.9 µM (inactive); in assay [9] it was 22.1 µM (inactive); in assay [10], 56.2 µM (inactive); in assay [19], 13.5 µM (inactive); in assay [12], 26.5 µM (inactive). Besides, the GI50 is 2.44 µM (inactive) in [13]; 18.7 µM (inactive) in [14]; 26.5 µM (inactive) in assay [15]; > 100 µM (inactive) in [16]; 40.6 µM (inactive) in [17]; 19.4 µM (inactive) in assay [18].
As for `O=c1[nH]c(NCc2ccncc2)nc2[nH]cnc12`, the GI50 in assay [1], in [3], in assay [4], in assay [5], in assay [6] and in assay [7] was > 100 µM (inactive) in each case. Besides, the GI50 in assay [8], in [9], in [10], in assay [19], in assay [11] and in assay [12] was > 100 µM (inactive) each time. Besides, the GI50 in [13], in assay [14], in [17] and in assay [18] was > 100 µM (inactive) throughout.
As for `N#CC(c1ccccc1)N(CCOCCOCCN(C(=O)c1ccccc1)C(C#N)c1ccccc1)C(=O)c1ccccc1` (stereo not given), the GI50 in assay [1] is > 100 µM (inactive); in assay [2], > 100 µM (inactive); in [3], > 100 µM (inactive); in [5], > 100 µM (inactive); in assay [6], 81.7 µM (inactive); in assay [7], > 100 µM (inactive). The GI50 in assay [8] was 37.1 µM (inactive); in [9] it was > 100 µM (inactive); in assay [10], > 100 µM (inactive); in assay [19], 91.2 µM (inactive); in assay [11] it was 32.2 µM (inactive); in assay [12], 7.08 µM (inactive). In addition, the GI50 in assay [13] was > 100 µM (inactive); in assay [14], 46.6 µM (inactive); in [15] it was > 100 µM (inactive); in assay [16], 82.6 µM (inactive); in assay [17], 83 µM (inactive); in assay [18], 85.3 µM (inactive).
As to `COC(=O)[C@@H]1CN(C(=O)c2ccccc2)C(=O)N1`, the GI50 in assay [1], in [2], in assay [3], in assay [4], in [5] and in [6] was > 100 µM (inactive) each time. Moreover, the GI50 in [7] was > 100 µM (inactive); in [8], 69.7 µM (inactive); in assay [9], > 100 µM (inactive); in [10] it was > 10 µM (inactive); in assay [19], > 100 µM (inactive); in assay [11] it was > 100 µM (inactive). In addition, the GI50 in assay [12], in assay [14], in assay [15], in assay [20], in assay [16] and in assay [17] was > 100 µM (inactive) throughout.
With `CN(C)c1nc2n(CCO)ccnc-2c(=O)n1`, the GI50 in [1], in assay [2], in [3], in assay [4], in assay [5] and in assay [6] was > 100 µM (inactive) in each case. Besides, the GI50 in [7], in [8], in assay [9], in [10], in assay [19] and in assay [11] was > 100 µM (inactive) each time. Moreover, the GI50 in [12], in assay [14], in assay [15], in [20], in assay [16] and in assay [17] was > 100 µM (inactive) in each case. In addition, the GI50 in assay [18] was > 100 µM (inactive).

(Values after ChEMBL document CHEMBL1201862, “PubChem BioAssay data set” (2004).)
